Reference: patent US11679100B2, “Methods of enhancing immunity” (The Regents of the University of California, priority 2018, dated 2023)

Tests used:
CD11b = molecular target: T1, CD11b (Homo sapiens, UniProt P11215); test: Cell adhesion assay on ICAM-1 coated substrates; format: cell-based; conditions: LA1 20 μM
T1 construct: Human CD14+ monocytes were isolated from the PBMCs; endogenous in cells; host or cells: primary human CD14+ monocytes from whole-blood PBMCs
Description: Cell Adhesion Assay— PBMCs were extracted from human whole blood using the vendor instructions for Sep Mate-50 tubes (#15450, Stem Cell). Human CD14+ monocytes were isolated from the PBMCs using the vendor instructions for the EasySep™ Human Monocyte Isolation Kit (Catalog #19359, Stem Cell). Briefly, 384-well plates (#3700, Corning) were coated with recombinant human ICAM1 (750 ng/mL, #720-IC, R&D Systems), or M1/70 (10 ug/mL, #101202, Biolegend) or IB4 (10 μg/mL, #167-020, Ancell) overnight at 4° C. Wells were blocked with 1% milk dissolved in TBS for 1 hr at room temperature. All wells received Ca^2+/Mg^2+ ions (1 mM each physiological concentration, baseline control) except for the positive control wells that received 1 mM Mn^2+ ions. A stock solution of LA1 agonist was prepared by dissolving the compound in DMSO at a concentration of 2 mM and final dilution of LA1 in wells was 20 μM. The final concentration of DMSO in all wells was 1%. 45,000 human monocytes were seeded in each well. Some wells received human monocytes cells that were pre-blocked with anti-human CD11b (M1/70) for 15 min at 4° C. The plates were incubated at 37° C. for 30 min followed by 30 min of inversion at room temperature to remove non-adherent cells. Cells were fixed, stained with DAPI and counted using the Opera High Content Screening System (Perkin Elmer). Assays were performed in six replicate wells.

[1] = system: bone marrow derived murine macrophages; test: mRNA/miRNA expression in LA1-treated macrophages; format: cell-based
Description: Murine macrophage differentiation and culture-Bone marrow derived cells (BMDC) were aseptically harvested from 6-8 week-old female mice by flushing leg bones of euthanized mice with phosphate buffered saline (PBS), 0.5% BSA, 2 mM EDTA, incubating in red cell lysis buffer (155 mM NH4Cl, 10 mM NaHCO3 and 0.1 mM EDTA) and centrifuging over Histopaque 1083 to purify the mononuclear cells. Approximately 5×10^7 BMDC were purified by gradient centrifugation from the femurs and tibias of a single mouse. Purified mononuclear cells were cultured in RPMI+20% serum+50 ng/ml M-CSF (PeproTech). Macrophage Polarization-Bone marrow derived macrophages were polarized with either IFNγ (20 ng/ml, Peprotech) plus LPS (100 ng/ml, Sigma) or LPS alone for 24 h or IL-4 (20 ng/ml, Peprotech) for 24-48 h. In some cases, macrophages were incubated with inhibitors of Stat3 ([…]) or cMyc (10058-F4, Selleck). […] Secreted protein was measured in culture supernatants by ELISA assays. […] Sybr green-based qPCR was performed using primers to murine Gapdh (Mm_Gapdh_1_SG), Arg1 (Mm_[…]_SG_QT00134288) Tgfb (Mm_Tgfb_1_SG Qiagen QT00145250), […] (Mm_Il10_1_SG Qiagen QT00106169), Il6 (Mm_Il6_1_SG Qiagen QT00098875), Nos2 (Mm_Nos2_1_SG Qiagen QT00100275), Il12b (Mm_Il12b_1_SG Qiagen QT00153643), Ifng (Mm_Ifng 1_SG Qiagen QT01038821), Il1b (Mm_Il1b_2_SG Qiagen QT01048355), Tnfa (Mm_Tnfa_1_SG Qiagen QT00104006), Vegfa (Mm_Vegfa_1_SG Qiagen QT00160769), Pdgfb (Mm_Pdgfb_1_SG Qiagen QT00266910) and human GAPDH (Hs_GAPDH_1_SG Qiagen QT00079247), ARG1 (Hs_Arginase_1_SG Qiagen QT00068446, IL6 (Hs_Il6_1_SG Qiagen QT00083720), NOS2 (Hs_NOS2_1_SG Qiagen QT00068740), IL12B (Hs_IL12B_1_SG Qiagen QT00000364), and PDGFB (Hs_PDGFB_1_SG Qiagen QT00001260) (Qiagen QuantiTect Primer Assay). mRNA levels were normalized to Gapdh or GAPDH (ΔCt=Ct gene of interest-Ct Gapdh) and reported as relative mRNA expression (ΔΔCt=2^-(ΔCt sample-ΔCt control)) or fold change. […]

Structure (SMILES): O=C(O)c1ccc(-c2ccc(/C=C3\SC(=S)N(Cc4ccccc4)C3=O)o2)cc1 [LA1, leukadherin 1]
- myeloid cell adhesion to ICAM-1 coated substrates (CD11b): stimulated myeloid cell adhesion to ICAM-1 coated substrates
- expression of Il1b, Tnfa, Il12, Nos2 and Ifng mRNAs ([1]; IFNγ+LPS stimulated bone marrow derived murine macrophages): increases in expression of Il1b, Tnfa, Il12, Nos2 and Ifng mRNAs
- Let7a expression ([1]; macrophages): stimulated Let7a expression
- Pdgfb and Il6 expression ([1]; macrophages): inhibited Pdgfb and Il6 expression
